Assay results from patent US20060160848A1 (priority 2002, published 2006).
Where two headings read alike, the source gives them in different places.

What was measured:
mouse hepatocytes [1] = experiment: cells; conditions: Hepatocyte, 1 h
mouse hepatocytes [2] = experiment: Crotyl alcohol toxicity in isolated mouse hepatocytes (LDH leakage); conditions: 500 μM crotyl alcohol; for protection against crotyl alcohol toxicity by other hydrazines: 1-100 μM hydrazine, 1-3 hours
[3] = pH 7
mouse hepatocytes [4] = tested on: mouse hepatocytes
mouse hepatocytes [5] = experiment: Toxicity of smoke extract in mouse hepatocytes (LDH leakage); type: cell-based; conditions: 50 μM smoke-derived acrolein equivalents; 25, 50 and 100 μM drug; up to 180 min
PC-12 cells = experiment: Allylamine cytotoxicity in PC-12 cells (MTT)
acrolein-modified BSA = target: T1, acrolein-modified BSA (Bos taurus, UniProt P02769); experiment: Cell-free immunoassay for adduct-breaking on acrolein-pretreated BSA; type: biochemical, bovine; conditions: for adduct-breaking activity (acrolein-lysine adducts in BSA): BSA pretreated with 1 mM acrolein 20 min, 50, 250 and 500 μM test compound, 30 min at 37° C.
T1 construct: a model protein (BSA, bovine serum albumin); from tissue; host or cells: bovine serum (from the protein's name only)
T1 sequence (P02769 25-607): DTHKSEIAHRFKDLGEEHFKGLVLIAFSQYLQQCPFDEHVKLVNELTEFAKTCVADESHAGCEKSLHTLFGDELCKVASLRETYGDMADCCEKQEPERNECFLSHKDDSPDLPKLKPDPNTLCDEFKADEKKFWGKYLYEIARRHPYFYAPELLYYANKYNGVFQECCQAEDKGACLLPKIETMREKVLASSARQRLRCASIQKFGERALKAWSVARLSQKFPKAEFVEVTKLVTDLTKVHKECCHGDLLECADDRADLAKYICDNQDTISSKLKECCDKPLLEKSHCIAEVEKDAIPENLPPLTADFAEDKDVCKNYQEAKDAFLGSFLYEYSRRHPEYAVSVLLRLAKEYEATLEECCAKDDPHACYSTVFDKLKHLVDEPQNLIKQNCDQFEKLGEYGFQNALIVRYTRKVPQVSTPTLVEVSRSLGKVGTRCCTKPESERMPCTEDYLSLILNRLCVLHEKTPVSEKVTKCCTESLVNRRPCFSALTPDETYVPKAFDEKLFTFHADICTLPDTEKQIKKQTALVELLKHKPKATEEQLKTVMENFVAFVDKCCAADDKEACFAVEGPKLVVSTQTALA

mouse hepatocytes [6] = tested on: mouse hepatocytes; remark: listed apart in the source
mouse liver = experiment: Adduct-trapping in mouse liver proteins (Western blot, immunohistochemistry); type: in vivo
mouse hepatocytes [7] = conditions: 15 min, 3 mM hydralazine alone or 0.5 mM acrolein + 0.3 to 3 mM hydralazine
[8] = hypertensive human subjects, 50 mg oral dose; cited from earlier work
mouse hepatocytes [9] = tested on: mouse hepatocytes; remark: listed apart in the source
[10] = target: bovine pancreas ribonuclease A (Bos taurus, UniProt P61823); conditions: 3.2 mM acrolein; 0.3 to 3 mM hydralazine
bovine pancreas ribonuclease A, sequence (P61823 27-150): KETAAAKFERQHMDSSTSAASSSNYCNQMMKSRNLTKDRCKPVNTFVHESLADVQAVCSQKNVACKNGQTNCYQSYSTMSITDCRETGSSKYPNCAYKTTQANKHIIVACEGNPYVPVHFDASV

mice = experiment: Allyl alcohol hepatotoxicity in mice (plasma SDH, GPT, hepatic GSH)
acrolein-premodified BSA = acrolein-premodified BSA (Bos taurus, UniProt P02769); conditions: 1 mM acrolein, then 50 to 500 μM hydralazine 30 min
acrolein-premodified BSA, sequence (P02769 25-607): as the sequence (P02769 25-607) above

mouse hepatocytes [11] = conditions: 0.5 mM acrolein; 0.3 to 3 mM hydralazine
mouse hepatocytes [12] = tested on: mouse hepatocytes; remark: listed apart in the source
[13] = Sequestering of crotonaldehyde from buffered solution at 37° C. (HPLC); conditions: equimolar scavenger, up to 30 minutes
[14] = read-out: PC50 (concentration producing a 50% decrease in LDH leakage)
[15] = read-out: PC50 (concentration affording 50% reduction in cell killing)
[16] = 200 vs 100 μmol/kg hydralazine, allyl alcohol 90 mg/kg, 60 minutes
[17] = allyl alcohol 90 mg/kg i.p., 4 hours, estimated from dose-response
[18] = hydralazine 200 μmol/kg i.p., allyl alcohol 90 mg/kg

Question: With `NN(c1ccccc1)c1ccccc1` [1,1-diphenylhydrazine] as the compound, how does the EC50 (mouse hepatocytes [1]; [14]) read?
Answer: 2 ± 0.01 µM

Question: What about the “protection against crotyl alcohol toxicity by other hydrazines” value (mouse hepatocytes [2]) of the same compound?
Answer: best protection

Question: Which EC50 (mouse hepatocytes [1]; [14]) does the source give for `NNCc1ccccc1` [benzylhydrazine] here?
Answer: 37 ± 1.8 µM

Question: And the “protection against crotyl alcohol toxicity by other hydrazines” value (mouse hepatocytes [2])?
Answer: very poor cytoprotection

Question: What does the source list for `NNc1nnc(NN)c2ccccc12` [dihydralazine]?
Answer: acrolein removed from solution [3]: ~92%; EC50 (mouse hepatocytes [1]; [15]): 5.2 ± 1.5 µM; EC50 (mouse hepatocytes [1]; [14]): 13 ± 0.29 µM; protection against crotyl alcohol toxicity (LDH leakage) (mouse hepatocytes [2]; co-incubated up to 3 hours, 1-100 μM): approximately twice as effective as hydralazine; effect on cyclophosphamide-induced LDH leakage (mouse hepatocytes [4]): attenuated the toxicity of cyclophosphamide; attenuation of LDH leakage caused by smoke extract (mouse hepatocytes [5]): completely attenuating LDH leakage at all concentrations examined; cell viability restored to (PC-12 cells; 45 μM allylamine, 24 hr, approximately 1 μM dihydralazine and higher, allylamine alone about 40% of controls): approximately 80%; adduct-breaking activity (acrolein-lysine adducts in BSA) (acrolein-modified BSA): reducing adducts below detectable levels; attenuation of allyl alcohol toxicity (LDH leakage) (mouse hepatocytes [6]): strongly attenuated the toxicity of allyl alcohol; protection against allyl alcohol toxicity (LDH leakage) (mouse hepatocytes [6]): approximately twice as protective as hydralazine

Question: With `NNc1nncc2ccccc12` [hydralazine] as the compound, how does the “elevation in signal intensity, 26 kDa protein” value (mouse liver; [16]) read?
Answer: 2.6 fold

Question: What about the “elevation in signal intensity, 31 kDa protein” value (mouse liver; [16]) of the same compound?
Answer: 2.4 fold

Question: And the “adduct-trapping in liver proteins (Western blot)” value (mouse liver; 60 minutes after allyl alcohol 90 mg/kg + hydralazine 100 μmol/kg)?
Answer: strong adduct-trapping

Question: And the “immunohistochemical detection of hydralazine-stabilized acrolein adducts in liver sections” value (mouse liver; 4 hours after 300 μmol/kg i.p., hydralazine given with allyl alcohol, hydrazone given alone)?
Answer: intense adduct-trapping

Question: What about the “acrolein removed from solution” value [3] of the same compound?
Answer: approximately 82%

Question: What about the “intensity of acrolein adduct-containing protein bands” value (mouse hepatocytes [7]) of the same compound?
Answer: much lower than that seen in control cells

Question: And the “intensity of acrolein adduct-containing protein bands” value (mouse hepatocytes [7]; listed as Hydralazine)?
Answer: decreasing levels of adducted proteins below control values

Question: What about the EC50 (mouse hepatocytes [1]; [15]) of the same compound?
Answer: 8.3 ± 4 µM

Question: And the EC50 (mouse hepatocytes [1]; [14])?
Answer: 18 ± 0.81 µM

Question: And the peak plasma level [8]?
Answer: ~2 µM

Question: What about the “protection against pentenal toxicity” value (mouse hepatocytes [9]; 1 mM pentenal, 3 hours) of the same compound?
Answer: protection was most efficient for pentenal toxicity

Question: What about the “concentration achieving complete protection against propargyl alcohol toxicity” value (mouse hepatocytes [9]; 1 mM propargyl alcohol, 3 hours, highest concentration used) of the same compound?
Answer: 100 µM

Question: And the “concentration achieving complete protection against MDA toxicity” value (mouse hepatocytes [9]; 10 mM MDA, 12 to 18 hours, highest concentration used)?
Answer: 100 µM

Question: What about the “effect on cyclophosphamide-induced LDH leakage” value (mouse hepatocytes [4]) of the same compound?
Answer: attenuated the toxicity of cyclophosphamide

Question: And the “acrolein-lysine adducts in RNase A, added at 30 minutes” value [10]?
Answer: abolished the levels of acrolein-lysine adducts

Question: And the “effect on cross-linked RNase A, added at 120 minutes” value [10]?
Answer: incapable of cleaving crosslinked RNase A

Question: And the “inhibition of RNase A cross-linking, added at 30 minutes” value [10]?
Answer: strongly inhibited formation of crosslinked RNase A

Question: And the “adduct-trapping in PC12 cell proteins (Western blot)” value (PC-12 cells; 100 μM hydralazine + 80 or 100 μM allylamine)?
Answer: intense adduct-trapping reactions

Question: And the “protection against allylamine toxicity, added after 4 hour prior exposure” value (PC-12 cells; 100 μM hydralazine, 20-100 μM allylamine)?
Answer: also protected

Question: What about the “protection against allylamine toxicity, concurrent exposure” value (PC-12 cells; 100 μM hydralazine, 20-100 μM allylamine, overnight) of the same compound?
Answer: clear protection

Question: And the “effect on allyl alcohol-induced changes in plasma SDH and GPT activities” value (mice; allyl alcohol 90 mg/kg i.p. + hydralazine 300 μmol/kg i.p., 4 hours)?
Answer: almost totally abolishing

Question: What about the “dose affording half-maximal protection against liver injury (GPT)” value (mice; [17]) of the same compound?
Answer: 80 µmol/kg

Question: What about the “dose affording half-maximal protection against liver injury (SDH)” value (mice; [17]) of the same compound?
Answer: 160 µmol/kg

Question: And the “effect on hepatic GSH depletion caused by allyl alcohol” value (mice; allyl alcohol 90 mg/kg, hepatoprotective doses up to 300 μmol/kg)?
Answer: had no effect upon the hepatic GSH depletion

Question: What about the “effect on plasma SDH levels” value (mice; allyl alcohol 100 mg/kg i.p. + hydralazine 100 μmol/kg i.p., 4 hours) of the same compound?
Answer: did not alter the levels of SDH

Question: And the “decrease in plasma SDH activity” value (mice; allyl alcohol 100 mg/kg i.p. + hydralazine 200 and 300 μmol/kg i.p., 4 hours)?
Answer: 75 to 90%

Question: What about the “hepatoprotection (plasma SDH), 30 minute delay” value (mice; [18]) of the same compound?
Answer: hepatoprotective efficacy was diminished

Question: And the “hepatoprotection (plasma SDH), co-administered or 20 minute delay” value (mice; [18])?
Answer: strongly hepatoprotective

Question: And the “time acrolein adducts retained susceptibility to cleavage by hydralazine” value (acrolein-modified BSA; BSA + 1 mM acrolein 15-180 min, then 2 mM hydralazine 30 min)?
Answer: at least 30 minutes

Question: What about the “adduct-breaking activity (acrolein-lysine adducts in BSA)” value (acrolein-modified BSA) of the same compound?
Answer: diminished the intensity of acrolein adducted-BSA in a concentration-dependent manner

Question: What about the “adduct-trapping in acrolein-premodified BSA” value (acrolein-premodified BSA) of the same compound?
Answer: strong adduct-trapping

Question: What about the “attenuation of allyl alcohol toxicity (LDH leakage)” value (mouse hepatocytes [6]) of the same compound?
Answer: strongly attenuated the toxicity of allyl alcohol

Question: And the “protection against allyl alcohol toxicity (LDH leakage)” value (mouse hepatocytes [6])?
Answer: inhibited this toxicity in a concentration dependent manner

Question: What about the “cytoprotection against acute acrolein toxicity (LDH leakage)” value (mouse hepatocytes [11]) of the same compound?
Answer: afford cytoprotection

Question: And the “adduct-trapping in cell proteins” value (mouse hepatocytes [12]; 100 μM allyl alcohol 25 min, then 5 to 50 μM hydralazine 30 min)?
Answer: intense, concentration-dependent adduct-trapping

Question: And the “increase in band intensity (densitometry)” value (mouse hepatocytes [12]; 37, 40 and 43 kDa proteins, hydralazine 4 to 10 μM, postadduction phase)?
Answer: 12- to-200 fold

Question: With carnosine as the compound, how does the “acrolein removed from solution” value [3] read?
Answer: approximately 20%

Question: And the “adduct-breaking activity (acrolein-lysine adducts in BSA)” value (acrolein-modified BSA)?
Answer: lacked adduct-breaking potency

Question: And the EC50 (mouse hepatocytes [6]; [15])?
Answer: > 10000 µM

Question: And the EC50 (mouse hepatocytes [6]; [14])?
Answer: > 10000 µM

Question: What about the “ability to sequester crotonaldehyde from solution” value [13] of the same compound?
Answer: slightly more effective at removing crotonaidehyde from solution than pyridoxamine
